A short description of data set [1]: HPLC stability of TY in cochleates versus free TY in solution. Type of data set: physicochemical. The text has this:
HPLC was used to study the stability of the TY in the cochleates, by measuring the concentration of TY in TY-cochleates as compared to free, i.e., unencochleated TY in solution.

A further data set deals with SKOV3 cells. As to the kind of experiment: Interaction of ZnTPP-cochleates with SKOV3 cells, confocal fluorescence. It counts as cell-based. The text has this:
Phase contrast light microscopy and confocal microscopy (Olympus) was used to image liposomal suspensions, cochleates and cells, with and without the aid of fluorescence, which can be used, e.g., to study cellular uptake and intracellular distribution of fluorescently labeled cochleates and cargo moieties. Confocal microscopy is particularly advantageous as it is a 3-dimensional digital imaging device that can be used to effectively view slices of cell culture. This allows verification of the presence of cochleate and other agents within a cell.
In order to study any interaction of the cochleates with cells, ZnTPP-cochleates and free ZnTPP (in solution with DMSO) were introduced to SKOV3 cell cultures, and imaged with fluorescence under a confocal microscope.
Cochleates were prepared with and without ZnTPP as described above, except that prior to introduction of the ZnTPP/solvent, liposomes were formed with 1% diolyl phosphatidylethanolamine (DOPE) liganded to pyrene (purchased Avanti). The DOPE was incorporated into the soy PS liposomes by dissolving both DOPE and lipid in solvent, drying the solvent to a film, and using an aqueous solution to form liposomes. Confocal images were taken at 1 and 24 hours after introduction to SKOV3 cells to study the uptake and any difference in the cellular distribution of cochleate/lipid and the ZnTPP. […]

The subject of another data set is stomachs of rats. As to the kind of experiment: Gastric irritation (bleeding and ulcerations) in rats. It counts as in vivo, rat. The settings on record: stomachs examined 4 hours post carrageenan injection; samples 2, 3, 7 and 9. On the procedure:
A carrageenan model was employed to study the effect of anti-inflammatory cochleates on edema in rat paws. Various aspirin cochleates of the invention were used to treat carrageenan-induced rat paw edema. […] Additionally, rats in all groups were examined for gastric irritation.
Samples 6-10 were prepared in accordance with Example 16, except that the lipid:aspirin molar ratio was 5:1 and soy PS was used instead of DOPS. Samples 4, 5, and 11 were prepared in a similar manner in the absence of a cargo moiety. In all cases, water was used in lieu of TES buffer. All samples were given by oral gavage at 1 hour prior to injection of carrageenan on Day 0 in a volume of 3 mL of 0.5% methylcellulose. […] Volumes of rat paw (in ml) were measured prior to carrageenan injection using a semi-automated plethysmograph (Buxco). At 0 time, 0.1 ml of 1% carrageenan in 0.9% pyrogen free saline was injected into the right hind paw of the rat. The paw volumes (in ml) were measured again 3 hours post carrageenan injection to determine inhibition of paw edema. Four rats from each of groups 2, 3, 6, 7, 8, 9 and 10 and one rat from each of groups 1, 4, 5 and 11 were bled (intravenously, jugular vein, approximately 1 ml blood) at 30 minutes and 4 hours post drug administration. Blood was collected in heparinized vacutainers. […]

Turning to `COc1cc(/C=C(\C#N)C(N)=O)cc(CSc2nc3ccccc3s2)c1O` [free TY, Tyrphostin AG-825], the “concentration of degradation products (impurity 1 and impurity 2) over time” value in data set [1] was “degraded over time”. In addition, in data set [1] (cochleates versus free TY in solution), the “TY concentration over time (stability)” value is reported as “decreased to zero”.

As for `C1=Cc2nc1c(-c1ccccc1)c1ccc([n-]1)c(-c1ccccc1)c1nc(c(-c3ccccc3)c3ccc([n-]3)c2-c2ccccc2)C=C1.[Zn+2]` [free ZnTPP, Zinc Tetra-Phenyl Porphyrin], in the data set on SKOV3 cells (at 24 hours), the “degradation of ZnTPP in SKOV3 cell culture” value is reported as “significant degradation”. Further, in the data set on SKOV3 cells (confocal fluorescence images at 1 hour and 24 hours), the “uptake by SKOV3 cells” value is recorded as “high uptake”.

Turning to `COc1ccc2c(c1)c(CC(=O)O)c(C)n2C(=O)c1ccc(Cl)cc1` [indomethacin], the “incidence and level of severity of gastric irritation” value in the data set on stomachs of rats is “greatest gastric irritation”.

As for `CC(=O)Oc1ccccc1C(=O)O` [unencochleated aspirin, aspirin], in the data set with stomachs of rats, the “incidence and level of severity of gastric irritation” value is recorded as “greatest gastric irritation, followed by unencochleated aspirin”.

The record behind these values is patent publication US9974745B2, “Encochleation methods, cochleates and methods of use” (RUTGERS, THE STATE UNIVERSITY OF NEW JERSEY, priority 2003, dated 2018).
